The values below come from patent US20240390256A1, “A DEODORANT COMPOSITION” (priority 2021, published 2024).

For the experiment, the system named is S. hominis ATCC 27844. Kind of experiment: Malodour assay using lead acetate method (H2S formation by S. hominis, 96-well plate). It counts as cell-based. To be noted: for (%) Malodour generated: bacterial control = 100; for % malodour generation as compared to pectin: malodour assay, carbohydrates at 2 wt. %. On the procedure:
The test organisms was grown on TSA (Tryptic Soya Agar) plates overnight (22±2 hr). The organism was not more than 3 passages removed from the original source. The cell number was adjusted by re-suspending it in a suitable amount of physiological saline sufficient to achieve the required cell number based on optical density of the cells. The optical density (OD at 620 nm) of the cells were standardized to the cell number for the test organism using a spectrophotometer. A minimum final suspension of 1.0×10^8 CFU/mL was achieved by adjusting the OD to 0.2 in saline for the malodour assay. A 1% lead acetate solution was made in distilled water. Whatmann filter paper (cut in the size that could be placed over the wells of a well plate) was dipped in the lead acetate solution. The excess solution was drained and allowed to dry in Laminar Air Flow for 30 minutes. Stock solutions of the actives were prepared for performing the assay. A 0.5% citrus pectin was prepared by weighing 0.05 g of pectin in 10 ml sterile distilled water under magnetic stirrer for 30 min. A 1:10 dilution of this stock was prepared in sterile distilled water to achieve a final stock of 0.05% citrus pectin to perform the assay. A 1% stock of niacinamide was prepared by weighing 0.1 g in 10 ml sterile distilled water. The malodour assay was adapted from the method of Moore et al, 2003 and modified into a 96 well plate format. 100 μl Tryptic Soy Broth (TSB) with 0.1% L-cysteine-HCl was added into the wells of the 96-well plate. 20 μl of 0.2 OD culture of S. hominis was then added into the wells. The actives were added from the stock solutions at required concentrations and made up the volume to 200 μl with addition of sterile distilled water. The assay was done in triplicates. The lead acetate paper was placed over the wells and the lid of the 96-well plate was closed and incubated at 37° C. incubator overnight. After the incubation time, the dark coloration of the lead acetate paper was observed. Visible blackening of lead acetate in the area over the well indicated the presence of H2S. The intensity of the colour was recorded using a reflectometer as L*a*b* values. The difference between the initial and final L*a*b* values ΔE, was used to quantify malodour formation. The percentage malodour was calculated from ΔE measured using the above assay for the various actives or combinations.

Setting [1] is: Table 2, comparative carbohydrates at 2 wt. %.
Setting [2] is: Table 1, active wt % as given per example, S. hominis in TSB with 0.1% L-cysteine-HCl, 37° C. overnight, calculated from ΔE.

Regarding `OC[C@H]1O[C@@](CO)(O[C@H]2O[C@H](CO)[C@@H](O)[C@H](O)[C@H]2O)[C@@H](O)[C@@H]1O` [F, Sucrose], under setting [1], the “(%) Malodour generated” value is reported as 100%. Besides, for the setting “Table 2”, the “% malodour generation as compared to pectin” value is given as “higher”.
Take `NC(=O)c1cccnc1` [D, Niacinamide]: the “(%) Malodour generated” value under setting [2] is given as 71%.
Take `O=C[C@H](O)[C@@H](O)[C@@H](O)[C@H](O)CO` [J, Galactose]: under setting [1], the “(%) Malodour generated” value was found to be 90%. Besides, for the setting “Table 2”, the “% malodour generation as compared to pectin” value is given as “higher”.
As to `NC(=O)c1cccnc1` [C, Niacinamide], the “(%) Malodour generated” value under setting [2] is on record as 89%.
